The kinase profiling compilation of Christmann-Franck et al. (2016)

Key:
Assay in all cases: KINOMEscan competition binding
Details in all cases: compound 1.0 µM
[1] = target: DDR2 (human) (UniProt Q16832)
[2] = target: CSF1R (human) (UniProt P07333)
[3] = test system: EGFR (human), P00533 [G719C]
[4] = target: TBK1 (human) (UniProt Q9UHD2)
[5] = target: PRKCQ (human) (UniProt Q04759)
[6] = target: STK35 (human) (UniProt Q8TDR2)
[7] = target: MAPK6 (human) (UniProt Q16659)
[8] = target: MAP2K1 (human) (UniProt Q02750)
[9] = target: CSNK2A1 (human) (UniProt P68400)
[10] = target: FES (human) (UniProt P07332)
[11] = target: EPHA5 (human) (UniProt P54756)
[12] = target: STK17B (human) (UniProt O94768)
[13] = target: IGF1R (human) (UniProt P08069)
[14] = test system: EGFR (human), P00533 [L861Q]
[15] = target: PKN2 (human) (UniProt Q16513)
[16] = target: ITK (human) (UniProt Q08881)
Sequence of ITK (human) (Q08881 whole entry, looked up): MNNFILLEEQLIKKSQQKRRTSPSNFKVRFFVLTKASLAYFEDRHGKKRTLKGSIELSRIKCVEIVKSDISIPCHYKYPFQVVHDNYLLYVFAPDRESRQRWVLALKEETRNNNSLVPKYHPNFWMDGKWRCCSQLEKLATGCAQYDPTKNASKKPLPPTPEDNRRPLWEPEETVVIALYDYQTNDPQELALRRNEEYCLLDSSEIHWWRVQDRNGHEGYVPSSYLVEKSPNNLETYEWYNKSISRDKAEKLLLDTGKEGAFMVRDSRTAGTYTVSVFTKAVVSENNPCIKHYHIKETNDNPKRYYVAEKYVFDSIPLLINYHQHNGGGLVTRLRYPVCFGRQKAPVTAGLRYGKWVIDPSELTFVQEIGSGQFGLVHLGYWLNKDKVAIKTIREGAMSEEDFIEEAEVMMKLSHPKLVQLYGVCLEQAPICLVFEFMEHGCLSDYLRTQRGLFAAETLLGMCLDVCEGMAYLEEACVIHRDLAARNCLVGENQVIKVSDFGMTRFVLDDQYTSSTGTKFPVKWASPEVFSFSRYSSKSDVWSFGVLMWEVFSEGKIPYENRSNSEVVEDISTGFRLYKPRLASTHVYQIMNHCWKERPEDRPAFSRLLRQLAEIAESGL

[17] = target: MAP3K2 (human) (UniProt Q9Y2U5)
[18] = target: CSNK2A2 (human) (UniProt P19784)
[19] = target: MAP3K13 (human) (UniProt O43283)
[20] = target: HIPK3 (human) (UniProt Q9H422)
[21] = target: MAP4K2 (human) (UniProt Q12851)
[22] = target: CLK2 (human) (UniProt P49760)
[23] = target: MAPKAPK5 (human) (UniProt Q8IW41)
[24] = target: ROCK1 (human) (UniProt Q13464)
Sequence of ROCK1 (human) (Q13464 whole entry, looked up): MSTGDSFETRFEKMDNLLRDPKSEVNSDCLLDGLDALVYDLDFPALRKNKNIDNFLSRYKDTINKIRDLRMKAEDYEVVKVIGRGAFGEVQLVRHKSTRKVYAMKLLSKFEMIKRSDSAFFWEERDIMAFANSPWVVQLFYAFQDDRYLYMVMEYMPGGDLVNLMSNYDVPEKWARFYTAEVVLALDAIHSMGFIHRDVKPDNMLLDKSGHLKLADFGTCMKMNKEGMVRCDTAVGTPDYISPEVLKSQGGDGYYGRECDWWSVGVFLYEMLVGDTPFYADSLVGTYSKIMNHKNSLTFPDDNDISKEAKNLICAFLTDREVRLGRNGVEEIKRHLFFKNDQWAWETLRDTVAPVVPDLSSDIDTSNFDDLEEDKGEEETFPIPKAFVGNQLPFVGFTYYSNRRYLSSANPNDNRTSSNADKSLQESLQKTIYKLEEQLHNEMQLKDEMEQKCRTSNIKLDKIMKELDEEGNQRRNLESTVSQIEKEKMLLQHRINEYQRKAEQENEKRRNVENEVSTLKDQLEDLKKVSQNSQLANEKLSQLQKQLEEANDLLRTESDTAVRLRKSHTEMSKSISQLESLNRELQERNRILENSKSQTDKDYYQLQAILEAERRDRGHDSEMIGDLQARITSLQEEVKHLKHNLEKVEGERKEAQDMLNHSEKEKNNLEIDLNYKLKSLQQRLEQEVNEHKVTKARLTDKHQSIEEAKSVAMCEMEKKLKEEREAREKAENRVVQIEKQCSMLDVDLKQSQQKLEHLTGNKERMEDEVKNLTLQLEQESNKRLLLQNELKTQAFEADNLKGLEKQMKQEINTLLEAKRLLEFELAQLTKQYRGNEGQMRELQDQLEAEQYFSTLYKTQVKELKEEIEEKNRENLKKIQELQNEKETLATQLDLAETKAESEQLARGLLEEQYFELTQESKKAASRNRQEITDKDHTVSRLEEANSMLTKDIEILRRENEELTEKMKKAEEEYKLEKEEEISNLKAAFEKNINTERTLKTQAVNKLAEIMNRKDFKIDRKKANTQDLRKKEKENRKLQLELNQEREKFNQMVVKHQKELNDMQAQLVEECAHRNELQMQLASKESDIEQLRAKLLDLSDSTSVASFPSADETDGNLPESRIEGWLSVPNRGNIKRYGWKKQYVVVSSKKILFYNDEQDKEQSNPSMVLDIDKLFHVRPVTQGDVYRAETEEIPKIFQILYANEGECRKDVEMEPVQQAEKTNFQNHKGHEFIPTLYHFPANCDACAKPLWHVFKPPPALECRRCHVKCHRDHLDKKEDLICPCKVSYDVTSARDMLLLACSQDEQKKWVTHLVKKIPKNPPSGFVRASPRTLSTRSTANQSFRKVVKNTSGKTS

[25] = target: MAPK14 (human) (UniProt Q16539)
[26] = target: MAP3K5 (human) (UniProt Q99683)
Sequence of MAP3K5 (human) (Q99683 whole entry, looked up): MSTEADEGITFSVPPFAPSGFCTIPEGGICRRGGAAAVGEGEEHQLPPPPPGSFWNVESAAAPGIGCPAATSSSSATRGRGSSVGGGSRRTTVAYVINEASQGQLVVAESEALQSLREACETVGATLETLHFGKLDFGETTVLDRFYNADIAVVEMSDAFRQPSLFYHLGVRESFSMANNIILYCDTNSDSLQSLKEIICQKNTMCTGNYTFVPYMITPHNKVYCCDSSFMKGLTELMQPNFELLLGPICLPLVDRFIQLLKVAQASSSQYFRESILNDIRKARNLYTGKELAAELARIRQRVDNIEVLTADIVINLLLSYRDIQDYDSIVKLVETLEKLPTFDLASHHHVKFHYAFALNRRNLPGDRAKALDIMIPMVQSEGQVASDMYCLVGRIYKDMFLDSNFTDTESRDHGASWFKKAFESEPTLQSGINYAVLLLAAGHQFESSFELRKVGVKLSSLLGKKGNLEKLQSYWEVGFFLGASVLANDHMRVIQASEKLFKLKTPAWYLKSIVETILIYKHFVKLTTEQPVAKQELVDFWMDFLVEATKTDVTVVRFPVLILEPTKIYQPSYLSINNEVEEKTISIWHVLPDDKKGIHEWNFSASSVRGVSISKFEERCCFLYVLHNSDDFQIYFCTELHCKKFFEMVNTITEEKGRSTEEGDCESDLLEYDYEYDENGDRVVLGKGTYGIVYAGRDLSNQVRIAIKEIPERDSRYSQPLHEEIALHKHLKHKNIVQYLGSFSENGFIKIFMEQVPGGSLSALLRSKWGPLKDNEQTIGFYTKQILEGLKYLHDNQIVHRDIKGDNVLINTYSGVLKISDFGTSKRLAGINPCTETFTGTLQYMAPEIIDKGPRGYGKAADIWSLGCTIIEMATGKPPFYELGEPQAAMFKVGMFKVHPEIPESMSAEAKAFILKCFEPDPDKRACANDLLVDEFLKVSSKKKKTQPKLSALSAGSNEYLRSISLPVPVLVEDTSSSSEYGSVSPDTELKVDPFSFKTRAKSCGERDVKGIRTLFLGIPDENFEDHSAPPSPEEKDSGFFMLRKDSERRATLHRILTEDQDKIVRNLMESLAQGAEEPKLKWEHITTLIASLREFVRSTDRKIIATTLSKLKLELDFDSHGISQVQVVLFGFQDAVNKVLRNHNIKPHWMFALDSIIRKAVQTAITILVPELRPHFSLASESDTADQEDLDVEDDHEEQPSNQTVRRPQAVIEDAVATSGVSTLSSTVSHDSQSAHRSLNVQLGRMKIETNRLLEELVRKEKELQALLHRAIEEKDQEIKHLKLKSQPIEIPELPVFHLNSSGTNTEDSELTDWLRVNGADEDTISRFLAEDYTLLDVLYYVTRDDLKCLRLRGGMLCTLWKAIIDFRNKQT

[27] = target: CDC2L2 (human) (UniProt Q9UQ88)
[28] = test system: ABL1 (human), P00519 [H396P]
[29] = target: BRAF (human) (UniProt P15056)
[30] = target: PRKCE (human) (UniProt Q02156)
Sequence of PRKCE (human) (Q02156 whole entry, looked up): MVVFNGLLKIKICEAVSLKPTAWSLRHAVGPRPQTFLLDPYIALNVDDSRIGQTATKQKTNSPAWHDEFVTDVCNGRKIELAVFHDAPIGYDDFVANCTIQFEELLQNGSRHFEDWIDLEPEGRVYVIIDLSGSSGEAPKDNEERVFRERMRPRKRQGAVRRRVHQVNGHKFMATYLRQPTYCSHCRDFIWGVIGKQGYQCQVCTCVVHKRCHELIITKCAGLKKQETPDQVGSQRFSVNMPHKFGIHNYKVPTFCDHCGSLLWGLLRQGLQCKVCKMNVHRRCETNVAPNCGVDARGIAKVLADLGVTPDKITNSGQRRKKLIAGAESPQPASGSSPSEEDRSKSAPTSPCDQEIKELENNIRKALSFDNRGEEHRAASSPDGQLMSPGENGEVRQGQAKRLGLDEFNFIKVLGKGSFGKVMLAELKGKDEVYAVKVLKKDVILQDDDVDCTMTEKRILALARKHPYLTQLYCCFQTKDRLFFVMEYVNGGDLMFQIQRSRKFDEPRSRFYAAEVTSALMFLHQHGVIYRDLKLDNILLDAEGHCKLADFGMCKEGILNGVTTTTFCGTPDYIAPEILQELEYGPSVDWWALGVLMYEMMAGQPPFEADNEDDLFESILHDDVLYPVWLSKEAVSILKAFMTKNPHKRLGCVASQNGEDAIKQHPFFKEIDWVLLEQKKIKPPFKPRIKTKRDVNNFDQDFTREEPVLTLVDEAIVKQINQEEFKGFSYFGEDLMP

[31] = target: IRAK1 (human) (UniProt P51617)
[32] = target: ADCK3 (human) (UniProt Q8NI60)
[33] = target: JAK1 JH1 catalytic (human) (UniProt P23458)
[34] = target: RIPK1 (human) (UniProt Q13546)
[35] = target: EPHB6 (human) (UniProt O15197)
[36] = target: STK33 (human) (UniProt Q9BYT3)
[37] = test system: BRAF (human), P15056 [V600E]
[38] = target: RPS6KA4 KD1 (human) (UniProt O75676)
Sequence of RPS6KA4 KD1 (human) (O75676 whole entry, looked up): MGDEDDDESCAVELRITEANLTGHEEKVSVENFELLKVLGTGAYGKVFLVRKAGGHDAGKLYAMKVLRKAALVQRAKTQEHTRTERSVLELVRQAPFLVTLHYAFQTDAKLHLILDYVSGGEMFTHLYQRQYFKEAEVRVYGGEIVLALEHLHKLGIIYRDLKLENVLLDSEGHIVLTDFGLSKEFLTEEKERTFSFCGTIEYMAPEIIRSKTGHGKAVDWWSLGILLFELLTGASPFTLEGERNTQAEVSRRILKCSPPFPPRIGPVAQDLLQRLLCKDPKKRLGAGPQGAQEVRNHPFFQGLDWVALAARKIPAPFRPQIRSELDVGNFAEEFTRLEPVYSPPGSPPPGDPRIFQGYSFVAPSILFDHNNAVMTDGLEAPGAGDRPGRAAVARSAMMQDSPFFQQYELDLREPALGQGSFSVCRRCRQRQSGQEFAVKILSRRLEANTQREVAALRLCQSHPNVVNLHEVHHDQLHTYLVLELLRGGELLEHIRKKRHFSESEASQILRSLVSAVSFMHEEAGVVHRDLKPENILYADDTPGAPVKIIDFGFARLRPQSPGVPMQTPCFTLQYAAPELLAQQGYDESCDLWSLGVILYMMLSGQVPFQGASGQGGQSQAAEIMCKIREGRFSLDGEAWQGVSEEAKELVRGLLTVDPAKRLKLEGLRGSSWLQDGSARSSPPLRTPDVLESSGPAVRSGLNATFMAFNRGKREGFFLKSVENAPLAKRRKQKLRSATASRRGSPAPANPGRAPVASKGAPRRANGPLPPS

[39] = target: MERTK (human) (UniProt Q12866)
[40] = target: MAPK9 (human) (UniProt P45984)

`Nc1cc(C(F)(F)F)c(-c2cc(N3CCOCC3)nc(N3CCOCC3)n2)cn1` gave an inhibition of binding [1] of 19%, an inhibition of binding [2] of 0% and an inhibition of binding [3] of 4%. The inhibition of binding [4] was 0%, the inhibition of binding [5] was 0% and the inhibition of binding [6] was 0%. It also gave an inhibition of binding [7] of 0%, an inhibition of binding [8] of 0% and an inhibition of binding [9] of 0%. For the same molecule, the inhibition of binding [10] was 0%, the inhibition of binding [11] was 0% and the inhibition of binding [12] was 0%. For the same molecule, the inhibition of binding [13] was 0%, the inhibition of binding [14] was 0% and the inhibition of binding [15] was 0%. It also gave an inhibition of binding [16] of 0%, an inhibition of binding [17] of 0% and an inhibition of binding [18] of 2%. It also gave an inhibition of binding [19] of 0%, an inhibition of binding [20] of 0% and an inhibition of binding [21] of 17%. For the same molecule, the inhibition of binding [22] was 0%, the inhibition of binding [23] was 0% and the inhibition of binding [24] was 0%. The inhibition of binding [25] was 0%, the inhibition of binding [26] was 1% and the inhibition of binding [27] was 19%. For the same molecule, the inhibition of binding [28] was 0%, the inhibition of binding [29] was 18% and the inhibition of binding [30] was 0%. For the same molecule, the inhibition of binding [31] was 12%, the inhibition of binding [32] was 4% and the inhibition of binding [33] was 38%. It also gave an inhibition of binding [34] of 0%, an inhibition of binding [35] of 3% and an inhibition of binding [36] of 0%. The inhibition of binding [37] was 17%, the inhibition of binding [38] was 4% and the inhibition of binding [39] was 0%. For the same molecule, the inhibition of binding [40] was 0%.
